Results from PubChem BioAssay (NCI).
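All cell lines were grown in 96-well plates and treated with compound for 48 hours. GI50: concentration for 50% inhibition of growth. Definition used: TGI = concentration required for complete inhibition of growth.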

What was measured:
Test in all cases: NCI anticancer screen, dose series, 48 h
[1] = test system: A498 renal
[2] = test system: CAKI-1 renal
[3] = test system: HOP-92 NSCLC
[4] = test system: HT29 colon
[5] = test system: KM12 colon
[6] = test system: NCI-H522 lung
[7] = test system: SK-MEL-2 melanoma
[8] = test system: SK-MEL-5 melanoma
[9] = test system: SNB-75 CNS
[10] = test system: TK-10 renal
[11] = test system: UACC-257 melanoma
[12] = test system: UACC-62 melanoma
[13] = test system: BT-549 breast
[14] = test system: NCI-H23 lung
[15] = test system: 786-0 renal
[16] = test system: A549 NSCLC
[17] = test system: ACHN renal
[18] = test system: CCRF-CEM leukemia
[19] = test system: COLO 205 colon
[20] = test system: HCC-2998 colon
[21] = test system: HCT-116 colon
[22] = test system: HCT-15 colon
[23] = test system: HL-60(TB) leukemia
[24] = test system: HOP-62 NSCLC
[25] = test system: HS 578T breast
[26] = test system: K-562 leukemia
[27] = test system: M14 melanoma
[28] = test system: MALME-3M melanoma
[29] = test system: MCF7 breast
[30] = test system: MDA-MB-231 breast
[31] = test system: MDA-MB-435
[32] = test system: MOLT-4 leukemia
[33] = test system: NCI-H226 lung
[34] = test system: NCI-H460 lung
[35] = test system: NCI/ADR-RES ovarian
[36] = test system: OVCAR-5 ovarian
[37] = test system: OVCAR-8 ovarian
[38] = test system: PC-3 prostate
[39] = test system: RXF 393 renal
[40] = test system: SF-268 CNS
[41] = test system: SF-539 CNS
[42] = test system: SK-MEL-28 melanoma
[43] = test system: SK-OV-3 ovarian
[44] = test system: SN12C renal
[45] = test system: SNB-19 CNS
[46] = test system: SR leukemia
[47] = test system: T-47D breast
[48] = test system: U251 CNS
[49] = test system: UO-31 renal

C=C(C)[C@@H]1CC[C@]2(C(=O)N[C@H](CO)Cc3ccccc3)CC[C@]3(C)[C@H](CC[C@@H]4[C@@]5(C)CCCNC(C)(C)[C@@H]5CC[C@]43C)[C@@H]12
GI50 [1]: 1.49 µM | TGI [1]: 2.94 µM | GI50 [2]: 1.49 µM | TGI [2]: 2.89 µM | GI50 [3]: 1.42 µM | TGI [3]: 3.02 µM | GI50 [4]: 0.24 µM | TGI [4]: 0.539 µM | GI50 [5]: 1.47 µM | TGI [5]: 2.91 µM | GI50 [6]: 1.75 µM | TGI [6]: 3.35 µM | GI50 [7]: 1.72 µM | TGI [7]: 3.18 µM | GI50 [8]: 1.67 µM | TGI [8]: 3.07 µM | GI50 [9]: 1.43 µM | TGI [9]: 2.87 µM | GI50 [10]: 1.61 µM | TGI [10]: 3.08 µM | GI50 [11]: 1.78 µM | TGI [11]: 3.34 µM | GI50 [12]: 1.76 µM | TGI [12]: 3.39 µM

CC1NC(=O)C2Cc3ccc(O)c(c3)Oc3ccc(cc3)C(O)C(C(=O)N2C)N(C)C(=O)C(C)NC(=O)C(Cc2ccc(O)cc2)N(C)C(=O)C(C)NC1=O (stereo not drawn)
TGI [13]: > 100 µM | TGI [3]: > 100 µM | TGI [14]: > 100 µM | TGI [11]: > 100 µM

CC1(C)C2CCC13C(=O)C1OC3(C2)C2C(=O)c3ccccc3C(=O)C12 (stereo not drawn)
GI50 [15]: > 100 µM | TGI [15]: > 100 µM | GI50 [16]: > 100 µM | TGI [16]: > 100 µM | GI50 [17]: > 100 µM | TGI [17]: > 100 µM | GI50 [2]: 21.9 µM | TGI [2]: 72.8 µM | GI50 [18]: 97 µM | TGI [18]: > 100 µM | GI50 [19]: > 100 µM | TGI [19]: > 100 µM | GI50 [20]: > 100 µM | TGI [20]: > 100 µM | GI50 [21]: > 100 µM | TGI [21]: > 100 µM | GI50 [22]: 79.4 µM | TGI [22]: > 100 µM | GI50 [23]: > 100 µM | TGI [23]: > 100 µM | GI50 [24]: > 100 µM | TGI [24]: > 100 µM | GI50 [3]: > 100 µM | TGI [3]: > 100 µM | GI50 [25]: > 100 µM | TGI [25]: > 100 µM | GI50 [4]: > 100 µM | TGI [4]: > 100 µM | GI50 [26]: > 100 µM | TGI [26]: > 100 µM | GI50 [5]: 82.9 µM | TGI [5]: > 100 µM | GI50 [27]: > 100 µM | TGI [27]: > 100 µM | GI50 [28]: 39.7 µM | TGI [28]: > 100 µM | GI50 [29]: > 100 µM | TGI [29]: > 100 µM | GI50 [30]: 2.44 µM | TGI [30]: 7.98 µM | GI50 [31]: > 100 µM | TGI [31]: > 100 µM | GI50 [32]: > 100 µM | TGI [32]: > 100 µM | GI50 [33]: > 100 µM | TGI [33]: > 100 µM | GI50 [14]: > 100 µM | TGI [14]: > 100 µM | GI50 [34]: > 100 µM | TGI [34]: > 100 µM | GI50 [6]: > 100 µM | TGI [6]: > 100 µM | GI50 [35]: 12.1 µM | TGI [35]: > 100 µM | GI50 [36]: > 100 µM | TGI [36]: > 100 µM | GI50 [37]: > 100 µM | TGI [37]: > 100 µM | GI50 [38]: 77.2 µM | TGI [38]: > 100 µM | GI50 [39]: > 100 µM | TGI [39]: > 100 µM | GI50 [40]: > 100 µM | TGI [40]: > 100 µM | GI50 [41]: > 100 µM | TGI [41]: > 100 µM | GI50 [7]: > 100 µM | TGI [7]: > 100 µM | GI50 [42]: > 100 µM | TGI [42]: > 100 µM | GI50 [43]: > 100 µM | TGI [43]: > 100 µM | GI50 [44]: > 100 µM | TGI [44]: > 100 µM | GI50 [45]: > 100 µM | TGI [45]: > 100 µM | GI50 [9]: > 100 µM | TGI [9]: > 100 µM | GI50 [46]: > 100 µM | TGI [46]: > 100 µM | GI50 [47]: > 100 µM | TGI [47]: > 100 µM | GI50 [10]: > 100 µM | TGI [10]: > 100 µM | GI50 [48]: > 100 µM | TGI [48]: > 100 µM | GI50 [11]: > 100 µM | TGI [11]: > 100 µM | GI50 [49]: > 100 µM | TGI [49]: > 100 µM
